The source of these data is patent EP0563112B1, “ENHANCED BIOAVAILABILITY PHARMACEUTICAL COMPOSITION CONTAINING PROBUCOL” (MERRELL DOW PHARMACEUTICALS INC., priority 1990, dated 1992).

For data set [1] the following is noted: Heeg and Tachizawa 1980; cited from earlier work.
Data set [2] in a line: Solubility determination of probucol in oils and binary solvent systems (HPLC assay). In kind it is physicochemical. The source says: Captex® 200 is a propylene glycol ester of caprylic (C₈) and capric (C₁₀) fatty acids obtained by fractionation of certain coconut oil fatty acids and is known generically as propylene glycol dicaprylate/dicaprate. Captex® 300 is a caprylic and capric acid triglyceride obtained by fractionation and subsequent esterification of coconut oil and is known generically as caprylic/capric triglyceride. Capmul® MCM is a mono and diglyceride of caprylic and capric acids.
Eight grams of each oil were transferred into a glass tube with a teflon liner screw cap, and 2.5 g of probucol were added to each tube. The tubes were capped and shaken by hand until the probucol particles were wetted. The tubes were then rotated for at least 48 hours on a test tube rotating apparatus. The solubility of probucol was determined using a high performance liquid chromatography (HPLC) assay procedure.
In order to determine if the solubility of probucol could be enhanced by incorporating absolute ethanol in the oil, three binary systems: safflower oil:ethanol (90:10), polyethylene glycol (PEG) 400:ethanol (90:10, 80:20, 70:30), and Captex® 200:ethanol (95:5, 90:10, 85:15, 80:20, and 75:25) were evaluated. The solubility data shown in Table II indicate that in each case the solubility of probucol increased in the presence of ethanol.

Consider `CC(C)(Sc1cc(C(C)(C)C)c(O)c(C(C)(C)C)c1)Sc1cc(C(C)(C)C)c(O)c(C(C)(C)C)c1` [probucol, 2,2'-bis (3,5-di-tertiarybutyl-4-hydroxyphenylthio)propane], for which, in data set [1], the “bioavailability of probucol from tablet dosage form” value was 2-8%. In addition, the “Solubility (%w/v)” value was 26.0 %w/v in data set [2] (Captex® 200:Ethanol 75:25); 26.0 %w/v in data set [2] (Captex® 200:Ethanol 80:20); 25.0 %w/v in data set [2] (Captex® 200:Ethanol 85:15); 24.0 %w/v in data set [2] (Captex® 200:Ethanol 90:10); 23.0 %w/v in data set [2] (Captex® 200:Ethanol 95:5); 2.8 %w/v in data set [2] (PEG 400 100:00). For the same molecule, the “Solubility (%w/v)” value in data set [2] (PEG 400:Ethanol 80:20) came out at 9.5 %w/v; in data set [2] (PEG 400:Ethanol 90:10) it was 5.8 %w/v; in data set [2] (PEG 400 Ethanol 70:30), 13.1 %w/v; in data set [2] (Safflower Oil:Ethanol 90:10) it was 11.5 %w/v; in data set [2] (in Capmul® MCM), 6.3 % w/v; in data set [2] (in Captex® 200), 18.2 % w/v. The “Solubility (%w/v)” value in data set [2] (in Captex® 300) is listed as 12.5 % w/v; in data set [2] (in Corn oil), 5.8 % w/v; in data set [2] (in Olive oil) it was 5.5 % w/v; in data set [2] (in Peanut oil), 5.6 % w/v; in data set [2] (in Safflower oil) it was 5.9 % w/v; in data set [2] (in Sunflower oil) it was 5.8 % w/v. In data set [2] (in Vegetable oil), the “Solubility (%w/v)” value was determined as 5.8 % w/v.
